Experimental data taken from patent publication US12331051B2 (priority 2021, dated 2025).
pEC50: −log10 of the molar value. Entries after “also recorded” stand apart in the source; their conditions may differ. Like-named read-outs stand apart in the source and are kept apart here.

Experiments:
D3 dopamine receptor = D3 dopamine receptor (Homo sapiens, UniProt P35462); experiment: BRET-based G protein dissociation assay; type: cell-based
male C57BL/6J mice = experiment: Head-twitch response (HTR) mouse model; type: in vivo
Experimental: The HTR mouse model is widely used as a proxy behavioral assay for hallucinogenic activity in humans [Halbertstad et al., Neuropharmacology, 2020, V167: 107933; Halberstadt et. al., Psychopharmacology (Berl). 2013, 227(4):727-39].
The magnet implants mounting and magnetometer assessments were conducted as described previously (Halberstadt et al., Psychopharmacology (Berl). 2013 227(4): 727-739). Data are represented as group means±standard deviation for the entire 60 minutes test session (FIG. 10A) and individual data points per 2 minutes blocks (FIG. 10B). Asterisks indicate statistical significances compared to the control (0 mg/kg).

5-HT2A receptor [1] = target: T1, 5-HT2A receptor (Homo sapiens, UniProt P28223); experiment: 5-HT2A receptor internalization, NanoBit HiBit-fused 5-HT2A in HEK293T cells; type: cell-based; design: expressed in transfected cells; host or cells: HEK293T
T1 sequence (P28223 whole entry, the tested form may be a part): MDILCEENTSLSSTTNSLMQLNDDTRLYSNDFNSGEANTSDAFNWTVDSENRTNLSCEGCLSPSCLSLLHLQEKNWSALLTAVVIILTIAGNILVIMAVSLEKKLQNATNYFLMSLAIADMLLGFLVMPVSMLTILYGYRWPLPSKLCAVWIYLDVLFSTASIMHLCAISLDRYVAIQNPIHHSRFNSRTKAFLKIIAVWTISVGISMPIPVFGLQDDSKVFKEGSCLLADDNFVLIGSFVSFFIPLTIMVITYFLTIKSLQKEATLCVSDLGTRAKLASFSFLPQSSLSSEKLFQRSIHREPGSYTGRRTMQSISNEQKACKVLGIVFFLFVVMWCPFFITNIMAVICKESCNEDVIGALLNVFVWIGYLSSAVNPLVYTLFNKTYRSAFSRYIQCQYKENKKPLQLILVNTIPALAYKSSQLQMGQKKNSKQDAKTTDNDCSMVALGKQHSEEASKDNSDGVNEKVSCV
Experimental: To assess the ability of the “E559 polymorph” to induce β-arrestin-mediated 5-HT2A receptor internalization in vitro, the loss of surface expression of 5-HT2A receptor was measured using a NanoBit N-terminal HiBit-fused 5-HT2A construct cloned in HEK293T cells (1:15 ratio 5-HT2A: β-arrestin2). In brief, cells were treated with serial dilution of test compounds for 1 hour or a specified time point.

[2] = target: CHRM5 (M5 muscarinic receptor) (Homo sapiens, UniProt P08912); experiment: BRET-based G protein dissociation assay; type: cell-based
Sequence of CHRM5 (M5 muscarinic receptor) (P08912 whole entry): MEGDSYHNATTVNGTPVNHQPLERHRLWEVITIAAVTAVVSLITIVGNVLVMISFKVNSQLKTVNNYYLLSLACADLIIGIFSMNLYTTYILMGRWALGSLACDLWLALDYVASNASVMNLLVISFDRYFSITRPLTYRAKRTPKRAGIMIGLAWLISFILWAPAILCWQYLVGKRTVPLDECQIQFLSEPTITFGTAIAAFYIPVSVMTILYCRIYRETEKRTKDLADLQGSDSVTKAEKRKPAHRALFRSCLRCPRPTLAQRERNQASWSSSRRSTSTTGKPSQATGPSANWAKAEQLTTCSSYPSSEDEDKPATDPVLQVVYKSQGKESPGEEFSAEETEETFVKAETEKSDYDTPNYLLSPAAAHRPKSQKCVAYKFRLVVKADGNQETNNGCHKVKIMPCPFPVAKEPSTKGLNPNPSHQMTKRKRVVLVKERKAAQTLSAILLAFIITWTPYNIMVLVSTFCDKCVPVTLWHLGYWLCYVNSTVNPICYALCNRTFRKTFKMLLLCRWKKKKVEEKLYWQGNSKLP

5-HT4 receptor = target: T2, 5-HT4 receptor (Homo sapiens, UniProt Q13639); experiment: G protein dissociation assay; type: cell-based; settings: FIG. 15
T2 construct: expressed in transfected cells; host or cells: HEK293T
T2 sequence (Q13639 whole entry): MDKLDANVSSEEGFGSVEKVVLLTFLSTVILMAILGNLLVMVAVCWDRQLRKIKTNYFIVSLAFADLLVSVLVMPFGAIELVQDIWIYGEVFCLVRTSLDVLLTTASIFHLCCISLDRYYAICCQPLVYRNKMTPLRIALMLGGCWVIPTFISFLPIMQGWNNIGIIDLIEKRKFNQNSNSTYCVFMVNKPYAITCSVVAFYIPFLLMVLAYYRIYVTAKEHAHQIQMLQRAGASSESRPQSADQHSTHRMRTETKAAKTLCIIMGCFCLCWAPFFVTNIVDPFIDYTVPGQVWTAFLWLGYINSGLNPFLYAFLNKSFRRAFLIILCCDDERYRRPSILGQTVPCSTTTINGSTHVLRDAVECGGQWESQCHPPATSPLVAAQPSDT

[3] = target: CHRM1 (M1 muscarinic receptor) (Homo sapiens, UniProt P11229); experiment: BRET-based G protein dissociation assay; type: cell-based
Sequence of CHRM1 (M1 muscarinic receptor) (P11229 whole entry): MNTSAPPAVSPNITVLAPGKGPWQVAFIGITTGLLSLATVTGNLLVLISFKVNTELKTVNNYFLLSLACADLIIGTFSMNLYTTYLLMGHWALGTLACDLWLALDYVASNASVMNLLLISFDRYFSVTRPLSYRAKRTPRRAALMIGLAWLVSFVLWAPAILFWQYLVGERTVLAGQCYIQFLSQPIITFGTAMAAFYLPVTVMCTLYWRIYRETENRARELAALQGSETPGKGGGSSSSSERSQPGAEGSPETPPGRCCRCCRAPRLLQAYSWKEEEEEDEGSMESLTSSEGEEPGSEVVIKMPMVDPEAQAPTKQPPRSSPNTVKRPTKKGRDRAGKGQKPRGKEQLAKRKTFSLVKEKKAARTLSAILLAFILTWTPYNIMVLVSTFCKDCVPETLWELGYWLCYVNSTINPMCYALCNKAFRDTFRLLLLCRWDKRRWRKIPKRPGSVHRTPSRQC

[4] = target: H4 histaminergic receptor (Homo sapiens, UniProt Q9H3N8); experiment: BRET-based G protein dissociation assay; type: cell-based
Sequence of H4 histaminergic receptor (Q9H3N8 whole entry): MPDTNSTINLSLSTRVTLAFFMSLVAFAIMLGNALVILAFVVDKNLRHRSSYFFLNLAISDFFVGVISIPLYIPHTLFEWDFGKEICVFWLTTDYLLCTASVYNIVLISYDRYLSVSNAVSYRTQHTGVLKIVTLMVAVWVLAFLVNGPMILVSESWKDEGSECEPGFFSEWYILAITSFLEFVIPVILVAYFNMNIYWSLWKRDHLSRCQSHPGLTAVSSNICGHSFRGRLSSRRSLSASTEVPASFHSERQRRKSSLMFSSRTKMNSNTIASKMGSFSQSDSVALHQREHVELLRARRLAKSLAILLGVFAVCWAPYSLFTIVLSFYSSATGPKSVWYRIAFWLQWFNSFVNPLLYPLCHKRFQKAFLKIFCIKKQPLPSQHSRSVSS

D1 dopamine receptor = D1 dopamine receptor (Homo sapiens, UniProt P21728); experiment: BRET-based G protein dissociation assay; type: cell-based
Sequence of D1 dopamine receptor (P21728 whole entry): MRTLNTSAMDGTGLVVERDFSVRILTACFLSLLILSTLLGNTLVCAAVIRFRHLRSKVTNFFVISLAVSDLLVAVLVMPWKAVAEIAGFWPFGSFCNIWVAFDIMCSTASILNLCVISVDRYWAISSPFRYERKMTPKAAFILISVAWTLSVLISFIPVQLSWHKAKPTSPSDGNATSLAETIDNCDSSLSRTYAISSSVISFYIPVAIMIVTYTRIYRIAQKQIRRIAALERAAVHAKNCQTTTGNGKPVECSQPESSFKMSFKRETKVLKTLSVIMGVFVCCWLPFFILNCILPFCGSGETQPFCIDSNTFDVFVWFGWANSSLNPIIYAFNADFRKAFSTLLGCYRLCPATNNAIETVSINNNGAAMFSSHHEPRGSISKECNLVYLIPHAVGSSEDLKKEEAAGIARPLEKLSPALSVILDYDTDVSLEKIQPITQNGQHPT

5-HT7 receptor = target: T3, 5-HT7 receptor (Homo sapiens, UniProt P34969); experiment: G protein dissociation and cAMP accumulation second messenger assays; type: cell-based
T3 construct: expressed in transfected cells; host or cells: HEK293T
T3 sequence (P34969 1-445 isoform P34969-2): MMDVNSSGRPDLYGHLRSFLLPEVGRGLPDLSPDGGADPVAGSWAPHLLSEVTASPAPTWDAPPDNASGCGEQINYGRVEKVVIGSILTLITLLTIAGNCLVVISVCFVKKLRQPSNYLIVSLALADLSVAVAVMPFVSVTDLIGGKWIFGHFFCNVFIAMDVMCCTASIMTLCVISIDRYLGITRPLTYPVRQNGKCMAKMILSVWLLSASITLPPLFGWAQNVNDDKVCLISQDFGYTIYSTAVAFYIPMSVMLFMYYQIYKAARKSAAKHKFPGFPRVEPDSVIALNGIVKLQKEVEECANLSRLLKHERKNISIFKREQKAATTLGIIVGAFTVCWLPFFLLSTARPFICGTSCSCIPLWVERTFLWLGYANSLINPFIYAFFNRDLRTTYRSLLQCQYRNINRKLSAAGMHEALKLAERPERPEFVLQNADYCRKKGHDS

D2 dopamine receptor = D2 dopamine receptor (Homo sapiens, UniProt P14416); experiment: BRET-based G protein dissociation assay; type: cell-based
Sequence of D2 dopamine receptor (P14416 whole entry): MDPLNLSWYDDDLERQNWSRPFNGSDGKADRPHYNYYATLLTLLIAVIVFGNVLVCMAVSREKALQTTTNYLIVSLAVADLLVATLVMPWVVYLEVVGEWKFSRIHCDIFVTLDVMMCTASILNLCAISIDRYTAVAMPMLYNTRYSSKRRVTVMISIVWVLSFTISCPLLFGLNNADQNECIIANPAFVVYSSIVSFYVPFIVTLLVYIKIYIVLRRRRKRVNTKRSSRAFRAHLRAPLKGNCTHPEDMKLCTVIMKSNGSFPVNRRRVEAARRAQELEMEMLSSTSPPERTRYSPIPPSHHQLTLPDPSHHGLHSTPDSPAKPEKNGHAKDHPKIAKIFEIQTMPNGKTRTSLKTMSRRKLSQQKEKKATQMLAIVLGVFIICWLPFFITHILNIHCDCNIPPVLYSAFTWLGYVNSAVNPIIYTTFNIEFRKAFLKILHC

5-HT2A receptor [5] = target: T1, 5-HT2A receptor
D5 dopamine receptor = D5 dopamine receptor (Homo sapiens, UniProt P21918); experiment: BRET-based G protein dissociation assay; type: cell-based
Sequence of D5 dopamine receptor (P21918 whole entry): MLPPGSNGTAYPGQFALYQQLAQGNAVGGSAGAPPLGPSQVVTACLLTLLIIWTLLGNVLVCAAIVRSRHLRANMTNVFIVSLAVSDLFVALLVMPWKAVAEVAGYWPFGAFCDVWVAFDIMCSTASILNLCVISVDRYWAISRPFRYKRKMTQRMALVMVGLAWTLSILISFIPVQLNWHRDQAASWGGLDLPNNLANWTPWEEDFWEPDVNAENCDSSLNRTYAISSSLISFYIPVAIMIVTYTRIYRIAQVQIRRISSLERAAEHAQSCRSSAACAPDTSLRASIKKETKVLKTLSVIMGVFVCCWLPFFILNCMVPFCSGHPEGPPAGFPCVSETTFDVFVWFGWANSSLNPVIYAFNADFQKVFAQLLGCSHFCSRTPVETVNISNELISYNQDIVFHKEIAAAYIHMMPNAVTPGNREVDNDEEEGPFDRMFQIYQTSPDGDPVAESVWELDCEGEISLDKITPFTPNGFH

5-HT2A receptor [6] = target: T1, 5-HT2A receptor; remark: listed apart in the source
5-HT5A receptor = target: T4, 5-HT5A receptor (Homo sapiens, UniProt P47898); experiment: G protein dissociation assay; type: cell-based
T4 construct: expressed in transfected cells; host or cells: HEK293T

[7] = target: H2 histaminergic receptor (Homo sapiens, UniProt P25021); experiment: BRET-based G protein dissociation assay; type: cell-based
Sequence of H2 histaminergic receptor (P25021 whole entry): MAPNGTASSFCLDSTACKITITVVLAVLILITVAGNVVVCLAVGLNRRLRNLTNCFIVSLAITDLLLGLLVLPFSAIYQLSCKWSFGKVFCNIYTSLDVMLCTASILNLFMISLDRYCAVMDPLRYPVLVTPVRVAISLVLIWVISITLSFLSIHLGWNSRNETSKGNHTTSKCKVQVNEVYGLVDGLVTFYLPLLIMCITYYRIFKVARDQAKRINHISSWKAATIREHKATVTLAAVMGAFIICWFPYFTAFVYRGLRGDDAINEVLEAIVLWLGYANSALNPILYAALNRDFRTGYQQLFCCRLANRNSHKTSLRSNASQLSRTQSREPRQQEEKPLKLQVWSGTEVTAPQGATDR

5-HT6 = 5-HT6 (Homo sapiens, UniProt P50406); experiment: G protein dissociation and cAMP accumulation second messenger assays; type: cell-based; design: expressed in transfected cells; host or cells: HEK293T
[8] = target: T5, ADRa1A (α1A adrenergic receptor) (Homo sapiens, UniProt P35348); experiment: BRET-based G protein dissociation assay; type: cell-based
T5 sequence (P35348 1-466): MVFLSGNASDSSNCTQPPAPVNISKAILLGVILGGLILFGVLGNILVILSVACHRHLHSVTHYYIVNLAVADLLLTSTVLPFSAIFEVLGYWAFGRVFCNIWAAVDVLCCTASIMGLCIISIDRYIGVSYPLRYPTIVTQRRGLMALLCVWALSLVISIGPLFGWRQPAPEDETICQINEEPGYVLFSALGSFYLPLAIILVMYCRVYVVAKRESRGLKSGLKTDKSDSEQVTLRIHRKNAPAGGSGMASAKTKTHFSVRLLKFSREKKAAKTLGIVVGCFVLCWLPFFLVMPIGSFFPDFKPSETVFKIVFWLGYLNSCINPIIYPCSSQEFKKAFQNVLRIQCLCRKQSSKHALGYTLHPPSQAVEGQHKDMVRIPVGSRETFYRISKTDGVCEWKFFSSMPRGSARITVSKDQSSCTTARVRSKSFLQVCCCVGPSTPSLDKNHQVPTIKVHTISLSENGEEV

[9] = target: T6, CHRM4 (M4 muscarinic receptor) (Homo sapiens, UniProt P08173); experiment: BRET-based G protein dissociation assay; type: cell-based
T6 sequence (P08173 1-479): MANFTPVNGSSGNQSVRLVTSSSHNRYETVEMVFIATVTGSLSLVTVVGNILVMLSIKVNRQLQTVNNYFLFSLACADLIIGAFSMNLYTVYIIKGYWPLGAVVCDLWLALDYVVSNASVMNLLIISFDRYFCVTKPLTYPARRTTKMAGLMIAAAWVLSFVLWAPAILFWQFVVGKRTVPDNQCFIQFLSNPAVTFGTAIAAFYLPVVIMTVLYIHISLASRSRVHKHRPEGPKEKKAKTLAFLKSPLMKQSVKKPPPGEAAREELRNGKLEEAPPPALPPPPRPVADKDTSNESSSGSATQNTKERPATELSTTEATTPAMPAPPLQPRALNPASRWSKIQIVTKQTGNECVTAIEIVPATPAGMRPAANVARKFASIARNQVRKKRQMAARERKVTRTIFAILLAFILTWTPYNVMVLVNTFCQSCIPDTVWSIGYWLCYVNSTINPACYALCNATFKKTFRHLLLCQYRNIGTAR

[10] = percentage of the reference ligand-induced maximal response, read-out: Emax

Sequence of D3 dopamine receptor (P35462 whole entry): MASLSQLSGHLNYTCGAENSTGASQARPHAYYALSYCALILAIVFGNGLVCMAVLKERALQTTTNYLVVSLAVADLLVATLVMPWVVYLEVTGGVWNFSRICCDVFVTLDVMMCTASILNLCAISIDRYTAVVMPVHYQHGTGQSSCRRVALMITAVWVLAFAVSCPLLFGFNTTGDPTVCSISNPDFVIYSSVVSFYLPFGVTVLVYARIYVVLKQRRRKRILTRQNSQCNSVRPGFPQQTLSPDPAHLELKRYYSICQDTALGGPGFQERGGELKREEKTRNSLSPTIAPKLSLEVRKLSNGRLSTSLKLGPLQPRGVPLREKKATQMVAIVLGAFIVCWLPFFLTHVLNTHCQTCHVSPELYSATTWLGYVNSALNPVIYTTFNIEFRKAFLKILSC

SMILES: CCN(CC)C(=O)[C@@H]1C=C2c3cccc4[nH]cc(c34)C[C@H]2N(C)C1 [LSD, lysergic acid diethylamide, reference compound]
- pEC50 (D3 dopamine receptor; agonist mode, read-out: EC50): 8.12
- Emax (D3 dopamine receptor; [10]): 74.5%
- head-twitch response (HTR) (male C57BL/6J mice; mouse, in vivo): elicited a strong HTR
- internalization of the 5-HT2A receptor (loss of surface expression) (5-HT2A receptor [1]): potent internalization
- pEC50 ([2]; agonist mode, read-out: EC50): < 5.00
- functional activity at 5-HT4 (5-HT4 receptor): lack potent agonist activity at 5-HT4 receptor
- pEC50 ([3]; agonist mode, read-out: EC50): 6.67
- pEC50 ([4]; agonist mode): 10.05
- Emax [4, 10]: 15%
- pEC50 (D1 dopamine receptor): 6.97
- Emax (D1 dopamine receptor): 41.3%
- functional activity at 5-HT7 (5-HT7 receptor): act as potent antagonist and inverse agonists
- pEC50 (D2 dopamine receptor): 8.66
- Emax (D2 dopamine receptor): 86%
- β-Arrestin2 recruitment at the 5-HT2A receptor (5-HT2A receptor [5]): strong recruiters of β-Arrestin2
- pEC50 (D5 dopamine receptor; agonist mode, read-out: EC50): 6.78
- Emax (D5 dopamine receptor; [10]): 70.7%
- functional (agonist) activity at 5-HT2A (5-HT2A receptor [6]): potent almost full 5-HT2A agonist
- functional activity at 5-HT5A (5-HT5A receptor): acts as a partial agonist
- pEC50 ([7]; agonist mode, read-out: EC50): < 5.00
- Emax [7, 10]: 21.2%
- functional activity at 5-HT6 (5-HT6): acts as a very potent partial agonist
- pEC50 ([8]; agonist mode, read-out: EC50): 7.41
- Emax ([8]; percentage of the reference ligand-induced maximal response): 24.8%
- pEC50 ([9]; agonist mode, read-out: EC50): 6.34

SMILES: CCN(CC)C(=O)[C@@H]1C=C2c3cccc4[nH]c(Br)c(c34)C[C@H]2N(C)C1 [E559, (5R, 8R)-2-Bromo-9,10-didehydro-N,N-diethyl-6-methylergoline-8-carboxamide hemi-D-tartrate]
- pEC50 (D3 dopamine receptor): 8.55
- Emax (D3 dopamine receptor): 31.8%
- Kb (D3 dopamine receptor): 7.13 nM
- head-twitch response (HTR) (male C57BL/6J mice; IP, E559 polymorph 0.1-10 mg/kg, LSD 0.1 mg/kg, 60 minutes): negative in HTR at all doses tested; also recorded: did not induce HTR above baseline at any tested dose
- internalization of the 5-HT2A receptor (loss of surface expression) (5-HT2A receptor [1]; single 1 hour treatment): only exhibits weak internalization of the 5-HT2A receptor
- pEC50 [2]: 5.24
- functional activity at 5-HT4 (5-HT4 receptor): lack potent agonist activity at 5-HT4 receptor
- pEC50 [3]: 8.53
- Emax [4]: 17.4%
- pEC50 (D1 dopamine receptor): 9.92
- Kb (D1 dopamine receptor): 32.9 nM
- functional activity at 5-HT7 (5-HT7 receptor; FIG. 15, FIG. 16A/B, listed as E559 polymorph): act as potent antagonist and inverse agonists; also recorded: exhibits significantly greater inverse agonism than LSD
- pEC50 (D2 dopamine receptor): 9.46
- Emax (D2 dopamine receptor): 77.4%
- β-Arrestin2 recruitment at the 5-HT2A receptor (5-HT2A receptor [5]; percentage of the 5-HT-induced maximal response): weak recruiter of β-Arrestin2
- pEC50 (D5 dopamine receptor): 8.43
- Emax (D5 dopamine receptor): 15.6%
- Kb (D5 dopamine receptor): 25.1 nM
- functional (agonist) activity at 5-HT2A (5-HT2A receptor [6]; FIG. 15, FIG. 16A/B): potent partial agonist of 5-HT2A
- antagonism of 5-HT activation of 5-HT2A (5-HT2A receptor [6]; Gq dissociation and β-arrestin2 recruitment, FIG. 17A/B): antagonizes the 5-HT activation
- functional activity at 5-HT5A (5-HT5A receptor; FIG. 15): antagonizes this receptor subtype
- pEC50 [7]: 6.53
- Emax [7]: 28.8%
- Kb [7]: 5190 nM
- functional activity at 5-HT6 (5-HT6; FIG. 15, FIG. 16A/B): acts as a very potent partial agonist
- pEC50 [8]: 7.60
- Kb [8]: 56.9 nM
- pEC50 [9]: 10.40
- Emax [9]: 15.6%
